Source: PMC11662004 (Communications Chemistry, 2024)
Like-named read-outs stand apart in the source and are kept apart here.

Target: T1, NgTet1 (Naegleria gruberi, UniProt D2W6T1)
T1 construct: His6-tagged full-length Naegleria gruberi NgTet1 (321 a. a.) protein with a thrombin cleavage site; made in house; host or cells: E. coli BL21(DE3)
T1 sequence (D2W6T1 1-321): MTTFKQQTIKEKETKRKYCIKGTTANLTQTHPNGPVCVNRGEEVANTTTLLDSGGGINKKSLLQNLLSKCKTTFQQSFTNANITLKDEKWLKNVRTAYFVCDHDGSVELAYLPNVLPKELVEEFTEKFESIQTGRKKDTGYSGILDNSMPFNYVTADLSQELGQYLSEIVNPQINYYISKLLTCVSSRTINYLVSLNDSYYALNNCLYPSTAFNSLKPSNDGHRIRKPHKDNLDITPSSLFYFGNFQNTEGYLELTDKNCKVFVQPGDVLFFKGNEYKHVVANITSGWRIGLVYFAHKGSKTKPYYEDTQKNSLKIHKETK
Format: biochemical
Conditions: for Km: read-out: KM^app (2OG)
Procedure: Double-stranded 12 bp DNA oligomers were added at a final concentration of 20 µM. […]
Double-stranded DNA oligomers were added at a final concentration of 20 µM. […]
All ^1H NMR spectra were recorded at 25 °C using D2O as a reference for internal deuterium lock on a Bruker Avance III 700 MHz equipped with an inverse TCI cryoprobe in 3 or 5 mm diameter tubes with a total sample volume of 160 or 565 μL, respectively. The water signal was reduced using Perfect Echo excitation sculpting suppression. Chemical shifts are reported in ppm relative to D2O (δH = 4.70 ppm).
Spectrometer settings were determined using a control sample containing all reaction components excluding enzyme. TET enzyme was added to an identical sample, and the resulting assay mixture was transferred to an NMR tube before deposition into the instrument. […] Spectrum recordings were carried out consecutively without delay. Data were processed using automated routines on MestReNova v14.2.0; signals of interest were integrated with absolute intensity scaling. ^1H NMR time courses reported in figures are representative results from two or three independent replicates.

SMILES: O=C(O)CCC(=O)C(=O)O [2OG, 2-oxoglutarate]
- decrease of 2OG KM^app on substrate saturation (20 µM 5mC DNA vs no DNA): ~2 fold
- Vmax^app (No DNA): 2.83 µM/min
- kcat^app (No DNA): 0.0095 s⁻¹
- Km (No DNA, 5 μM NgTet1): 284 µM
- Km (with 20 µM 5mC DNA): 150 µM
- Vmax^app (with 20 µM 5mC DNA): 8.31 µM/min
